In EP2899531B1, “Method for detecting a chiral analytes” (Jacobs University Bremen gGmbH, priority 2013, dated 2015):
Peptide text beside a SMILES is read from it.

Legend:
[1] = tested on: CB8-MDPP; experiment: Binding constants of chiral analytes with CB8-MDPP receptor complex, UV/Vis titration; conditions: CB8-MDPP (20 µM), H2O, 22 °C; from UV/Vis titrations, estimated error ≤ 10%
From the text: (§1) Bindungskonstanten zwischen CB8-Farbstoff-Komplexen und den in Tabelle 1 aufgeführten Analyten wurden mittels UV/Vis-Titration in H2O, sofern nicht anders angegeben, durchgeführt. Zu einer Lösung aus dem CB8-Farbstoff-Rezeptor wurde schrittweise eine Lösung des Analyten gegeben, und die UV/Vis-Spektren wurden aufgezeichnet. Die normalisierte Absorption bei 419 nm (CB8-MDAP) oder bei 443 nm (CB8-MDPP) wurde mit einer Gleichung für eine 1:1-Bindung mittels der Kleinstquadratmethode angepasst ([50]).

[2] = tested on: CB8-MDAP; experiment: Binding constants of chiral analytes with CB8-MDAP receptor complex, UV/Vis titration; conditions: CB8-MDAP (100 µM), H2O, 22 °C; from UV/Vis titrations, estimated error ≤ 10%
From the text: as §1

[3] = tested on: CB8-MDPP; experiment: Binding constants of chiral analytes with CB8-MDPP receptor complex, ICD titration; conditions: CB8-MDPP (20 µM), H2O, 22 °C; obtained by ICD titration
From the text: Die Bindungsaffinitäten der strukturell verschiedenartigen Analyten lagen im Bereich von 10^3 bis 10^6 M^-1, wodurch eine hochempfindliche Detektion ermöglicht wird. Die durch ICD-Titrationen ermittelten Bindungskonstanten bestätigten die durch UV/Vis-Messungen ermittelten. In allen Fällen fungiert CB8 als unverzichtbare Grundlage für die ICD-Effekte. […] Wie erwartet, ergab ein anderer Reporter-Farbstoff, MDAP oder MVE, jeweils ein anderes ICD-Spektrum, jedoch bei gleichermaßen niedriger Analytenkonzentration (40-100 µM, im Vergleich zu 20 µM, s. Tabelle 4, Fig. 3).

Ka [1]	Ka [2]	Ka [3]	Compound
1500 10^3 M^-1	11 10^3 M^-1	1400^d 10^3 M^-1	CC(C)[C@H](NC(=O)[C@@H](N)Cc1ccccc1)C(=O)O [PheVal] (H-Phe-Val-OH)
200 10^3 M^-1			N[C@@H](Cc1c[nH]c2ccccc12)C(=O)NCC(=O)NCC(=O)O [TrpGlyGly] (H-Trp-Gly-Gly-OH)
430 10^3 M^-1	50 10^3 M^-1		N[C@@H](Cc1c[nH]c2ccccc12)C(=O)N1CCC[C@H]1C(=O)O [TrpPro] (H-Trp-Pro-OH)

The next lines start with the molecule.

Compound	Ka [1]	Ka [2]	Ka [3]
N[C@@H](CC(=O)O)C(=O)N[C@@H](Cc1ccccc1)C(=O)O [AspPhe] (H-Asp-Phe-OH)	7 10^3 M^-1	0.8 10^3 M^-1	
N[C@@H](CCC(=O)O)C(=O)N[C@@H](Cc1c[nH]c2ccccc12)C(=O)O [GluTrp] (H-Glu-Trp-OH)	210 10^3 M^-1	25 10^3 M^-1	
NCC(=O)N[C@@H](Cc1c[nH]c2ccccc12)C(=O)NCC(=O)O [GlyTrpGly] (H-Gly-Trp-Gly-OH)	5000 10^3 M^-1		
N[C@@H](Cc1ccccc1)C(=O)NCC(=O)O [PheGly] (H-Phe-Gly-OH)	1900 10^3 M^-1	25 10^3 M^-1	
